Laboratory results reported in patent publication US11485728B2, “Small molecules for the treatment of autoimmune diseases and cancer” (Athos Therapeutics, Inc., priority 2020, dated 2022).

Assays:
[1] = In-vitro half-life in human liver microsomes; assay type: in vitro ADME; conditions: Human liver microsomes 0.5 mg/mL; 1 μg/mL drug; NRS; read-out: Metabolic Half-life
Procedure: In each of the species (human, rat, mouse) of liver matrix to be tested, a working concentration of 2 μg/mL was prepared of each test article from the 0.5 mg/mL DMSO stock solution by adding 3 μL of 0.5 mg/mL test article stock solution to 747 μL of the 1 mg/mL liver matrix. Incubation was performed at 37±2° C. with gentle, continuous mixing in shaking water bath in 2.0 mL-well capacity 96-Deepwell plates (96-DWP). Samples were retrieved in duplicate at the following time points: 0, 5, 10, 15, 30 and 60 minutes. The final mixture contained 1 μg/mL of drug and 0.5 mg/mL of liver matrix. First, 50 μL of test articles in liver matrix was added to the 96-DWP and pre-warmed the mixture in the 96-DWP for 2 minutes in the 37° C. water bath. The enzymatic reaction was started by the addition of 50 μL of the corresponding 2× NADPH regenerating system (NRS) cofactor solution to all sample wells and stopped by the addition of 300 μL of stop solution (acetonitrile containing 10 ng/mL Tolbutamide as an internal standard (I.Std.). The samples were agitated for 10 minutes and then centrifuged for 20 minutes at 4500 rpm. 25 μL of supernatant was diluted with 475 μL acetonitrile containing I. Std. into a new 96-DWPs for LC-MS/MS analysis.
Half-life calculations were generated and calculated by Graphpad Prism® software. The half-life of test compound was calculated based on the first-order reaction kinetics. The data was transformed to linear regression (y=log(y) where “y” axis represents the % compound remaining at any given time with respect to time 0 minutes; “x” axis represents time in minutes) in order to calculate the half-life.
A comparison of metabolic stability in time-course incubation experiments in varying species of liver can provide information of pharmacokinetic properties of drugs attributable to species-related differences in hepatic metabolism. The results of these experiments often assist in further applications such as assessing in vitro metabolite profiling and choosing relevant species for toxicology studies based on similarities relative to the metabolic stability to the human profile. For these experiments, the test compound was tested in parallel with a positive control, Dasatinab, in an enzymatic reaction solution of each species (human and rat) of liver microsomes containing a NADPH regenerating system (NRS). The final mixture contained 1 μg/mL of drug and 0.5 mg/mL of liver matrix. Incubations were performed at 37±2° C. with gentle, continuous mixing in shaking water bath in 96-Deep well plates. The stability of the test compound is monitored using fast, specific and sensitive LC/MS/MS analysis.

CYP2C8 = biological target: T1, CYP2C8 (Homo sapiens, UniProt P10632); assay: CYP-direct inhibition, CYP2C8; assay type: in vitro ADME
T1 construct: from tissue; host or cells: pooled human liver microsomes
T1 sequence (P10632 1-490): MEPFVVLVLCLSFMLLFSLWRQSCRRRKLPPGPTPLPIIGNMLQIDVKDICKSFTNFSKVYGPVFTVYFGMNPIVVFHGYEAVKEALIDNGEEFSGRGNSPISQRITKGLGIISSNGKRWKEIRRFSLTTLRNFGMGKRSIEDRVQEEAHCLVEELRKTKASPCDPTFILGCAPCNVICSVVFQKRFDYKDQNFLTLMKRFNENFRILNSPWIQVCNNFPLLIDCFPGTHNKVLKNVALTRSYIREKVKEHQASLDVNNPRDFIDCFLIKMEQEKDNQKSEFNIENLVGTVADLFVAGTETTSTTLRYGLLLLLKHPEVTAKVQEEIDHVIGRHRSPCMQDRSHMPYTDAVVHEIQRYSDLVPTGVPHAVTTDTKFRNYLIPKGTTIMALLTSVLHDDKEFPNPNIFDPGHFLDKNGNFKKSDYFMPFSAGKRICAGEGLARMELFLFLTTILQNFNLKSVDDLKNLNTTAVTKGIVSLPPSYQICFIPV
Procedure: Many drugs inhibit cytochrome P450 enzymes to cause clinically significant changes in the pharmacokinetics of other drugs. In vitro cytochrome P450 inhibition, can provide crucial information in evaluating potential clinical drug-drug interactions and is useful for focusing in vivo tests to areas of concern. The cytochrome P450 inhibition assay was developed by preparing a working cocktail solution consisting of six probe substrates 10 μM ethoxy-resorufin (CYP1A2), 100 μM rosiglitazone (CYP2C8), 50 μM diclofenac (CYP2C9), 300 μM S-mephenytoin (CYP2C19), 50 μM dextromethorphan (CYP2D6), and 20 μM midazolam (CYP3A4). A mixture solution consists of 140 uL of 0.286 mg/mL of pooled human liver microsome working solution and 20 uL working solutions of test articles, standard control inhibitors, or positive control placebo and 20 uL of substrate cocktail mixture working solution was prepared. The mixture solution was pre-warm in a gentle shaking bath at 37±2° C. for 5 minutes. The enzymatic reaction started by adding 20 uL of NRS working solution to the mixture solution and incubated for 10 minutes at 37±2° C. To stop the reaction, an addition of 400 μL cold stop solution (acetonitrile containing 50 ng/mL Tolbutamide as an internal standard (I.Std.) was added to the mixture solution. The final concentration of test article, inhibitors, substrates, and cofactors are noted in Table 0.1 below. Two individual samples were prepared for each test compound. The extracted samples were vortexed and then centrifuged at 4500 rpm for 7 minutes using Eppendorf Centrifuge 5910R. 200 uL of supernatant was diluting with 200 uL of 50% Methanol into 96-DW plate for LC/MS/MS analysis
Concentration-response plots are used to determine the effects of an inhibitor on an enzymatic reaction. A typical concentration-response plot provides fractional activity (Y axis) is plotted as a function of log inhibitor concentration (X axis). The data are fitted using a standard Sigmoidal dose-response equation which is also called a […] logistic equation. The concentration of compound that results in 50% inhibition of maximal activity is termed as the IC50 (inhibitor concentration yielding 50% inhibition). IC50 value is calculated using Prism GraphPad software, version 9. […].
Cytochrome P450 inhibition of a drug is a key factor in determining pharmacokinetic drug-drug interactions. The objective of this study was to evaluate the inhibition potential of G9a inhibitors on six (6) major human cytochrome P450 enzymes, including CYP1A2, CYP2C8, CYP2C9, CYP2C19, CYP2D6, and CYP3A4. Inhibition was determined by using a substrate cocktail and analyzing the rate of specific metabolites formation. The cytochrome P450 inhibition assay was developed using a cocktail consisting of six (6) probe substrates ethoxy-resorufin (CYP1A2), rosiglitazone (CYP2C8), diclofenac (CYP2C9), S-mephenytoin (CYP2C19), dextromethorphan (CYP2D6), and midazolam (CYP3A4). The cocktail was incubated in human liver microsome with NADPH regenerating system (NRS) in a shaking bath at 37±2° C. The formation of specific metabolites was monitored by LC/MS/MS. Test compound was added to the cocktail-liver microsome mixture at varying concentrations and its effect on cytochrome P450 activity was determined by analyzing the rate of specific metabolite formation. The percent inhibition was calculated and plotted with reference to the concentration, and the IC50 value for inhibition was derived by fitting the data with a using log(inhibitor) vs. normalized response with variable slope least squares fit by Graphpad Prism® software. […].

half-life at 1 μg/mL [1] [h] | IC50 (CYP2C8) [µM] | Compound
> 1 | > 100 | COc1cc2c(NC3CCOCC3)nc(N3CCS(=O)(=O)CC3)nc2cc1OCCCN1CCCC1 [Compound 196, 4-(6-methoxy-7-(3-(pyrrolidin-1-yl)propoxy)-4-((tetrahydro-2H-pyran-4-yl)amino)quinazolin-2-yl)thiomorpholine 1,1-dioxide]
> 1 | > 100 | COc1cc2c(NC3CCN(C(C)C)CC3)nc(N3CCC3)nc2cc1OCCCN1CCCC1 [Compound 234, 2-(azetidin-1-yl)-N-(1-isopropylpiperidin-4-yl)-6-methoxy-7-(3-(pyrrolidin-1-yl)propoxy)quinazolin-4-amine]
> 1 | > 100 | COc1cc2c(NC3CCN(C(C)C)CC3)nc(C#N)nc2cc1OCCCN1CCCC1 [Compound 235, 4-((1-isopropylpiperidin-4-yl)amino)-6-methoxy-7-(3-(pyrrolidin-1-yl)propoxy)quinazoline-2-carbonitrile]
> 1 | > 100 | COc1cc2c(NC3CCOCC3)nc(N3CCN(C)CC3)nc2cc1OCCCN1CCCC1 [Compound 236, 6-methoxy-2-(4-methylpiperazin-1-yl)-7-(3-(pyrrolidin-1-yl)propoxy)-N-(tetrahydro-2H-pyran-4-yl)quinazolin-4-amine]
> 1 | 95.5 | COc1cc2c(NC3CCOCC3)nc(N3CCCN(C)CC3)nc2cc1OCCCN1CCCC1 [Compound 237, 6-methoxy-2-(4-methyl-1,4-diazepan-1-yl)-7-(3-(pyrrolidin-1-yl)propoxy)-N-(tetrahydro-2H-pyran-4-yl)quinazolin-4-amine]
0.63 | 43.1 | COc1cc2c(NC3CCS(=O)(=O)CC3)nc(N3CCC(F)(F)CC3)nc2cc1C#CCN1CCCC1 [Compound 248, 4-((2-(4,4-difluoropiperidin-1-yl)-6-methoxy-7-(3-(pyrrolidin-1-yl)prop-1-yn-1-yl)quinazolin-4-yl)amino)tetrahydro-2H-thiopyran 1,1-dioxide]

Further lines, the molecule ahead of its results:

Compound | half-life at 1 μg/mL [1] [h] | IC50 (CYP2C8) [µM]
COc1cc2c(NC3CCN(C(C)C)CC3)nc(-n3ccnc3)nc2cc1OCCCN1CCCC1 [Compound 156, 2-(1H-imidazol-1-yl)-N-(1-isopropylpiperidin-4-yl)-6-methoxy-7-(3-(pyrrolidin-1-yl)propoxy)quinazolin-4-amine] | > 1 | > 100
COc1cc2c(NC3CCN(C(C)C)CC3)nc(-n3cccn3)nc2cc1OCCCN1CCCC1 [Compound 157, N-(1-isopropylpiperidin-4-yl)-6-methoxy-2-(1H-pyrazol-1-yl)-7-(3-(pyrrolidin-1-yl)propoxy)quinazolin-4-amine] | > 1 | > 100
COc1cc2c(N[C@H]3CCCNC3)nc(N3CCCC3)nc2cc1OCCCN1CCCC1 [Compound 158, (S)-6-methoxy-N-(piperidin-3-yl)-2-(pyrrolidin-1-yl)-7-(3-(pyrrolidin-1-yl)propoxy)quinazolin-4-amine] | > 1 | > 100
COc1cc2c(N[C@@H]3CCCNC3)nc(N3CCCC3)nc2cc1OCCCN1CCCC1 [Compound 159, (R)-6-methoxy-N-(piperidin-3-yl)-2-(pyrrolidin-1-yl)-7-(3-(pyrrolidin-1-yl)propoxy)quinazolin-4-amine] | > 1 | > 100
COc1cc2c(NC3CCOCC3)nc(N3CCCC3)nc2cc1OCCCN1CCCC1 [Compound 164, 6-methoxy-2-(pyrrolidin-1-yl)-7-(3-(pyrrolidin-1-yl)propoxy)-N-(tetrahydro-2H-pyran-4-yl)quinazolin-4-amine] | > 1 | 91.8
COc1cc2c(NC3CCOCC3)nc(N3CCC3)nc2cc1OCCCN1CCCC1 [Compound 174, 2-(azetidin-1-yl)-6-methoxy-7-(3-(pyrrolidin-1-yl)propoxy)-N-(tetrahydro-2H-pyran-4-yl)quinazolin-4-amine] | > 1 | > 100
COc1cc2c(NC3CCOCC3)nc(N3CCOCC3)nc2cc1OCCCN1CCCC1 [Compound 195, 6-methoxy-2-morpholino-7-(3-(pyrrolidin-1-yl)propoxy)-N-(tetrahydro-2H-pyran-4-yl)quinazolin-4-amine] | > 1 | > 100
COc1cc2c(NC3CCN(C(C)C)CC3)nc(N3CCC(F)(F)CC3)nc2cc1OCCCN1CCCC1 [Compound 400, 2-(4,4-difluoropiperidin-1-yl)-N-(1-isopropylpiperidin-4-yl)-6-methoxy-7-(3-(pyrrolidin-1-yl)propoxy)quinazolin-4-amine, reference compound] | > 1 | > 100
